Values joined by “and” are separate entries in the source; they are usually repeats but may differ in a detail not shown here. Identical values can stand only once. Like-named read-outs stand apart in the source and are kept apart here.

We go through six molecules from PMC6155721, “Hair Growth Promoting and Anticancer Effects of p21-activated kinase 1 (PAK1) Inhibitors Isolated from Different Parts of Alpinia zerumbet” (Molecules : A Journal of Synthetic Chemistry and Natural …, 2017).

One data set deals with A549 lung cancer cells. Kind of data set: Anticancer activity by MTT assay. The class given is cell-based. The conditions noted are these: mean ± SE of six replications, read-out: IC50 (μM), anti-cancer activity against the A549 cell line. The procedure: The assay was performed as previously described. Lung cancer cells (A549) were seeded into a 96-well plate at a density of 1 × 10^4 cells/well, and cultured for 24 h before the compounds were added. The cells were incubated in a humidified atmosphere of 5% CO2 at 37 °C for 72 h. After treatment, 20 μL MTT solution (0.5 mg/mL) was added to each well, and the plates were incubated for 3 h. The medium was removed, and the formazan was dissolved in 200 μL of DMSO. After shaking the plate for 10 min, cell viability was assessed by measuring the absorbance at 490 nm using a microplate reader (Corona, Hitachinaka-ku, Ibaraki, Japan). DMSO was used as a blank. The corrected absorbance of sample was divided by the corrected absorbance of the control, and then multiplied by 100% to give the percentage cell viability.
(Formazan colour is commonly taken as a measure of viable cells.)

The test system of data set [1] is human follicle dermal papilla cells (HFDPC). As to the kind of experiment: Human follicle dermal papilla cell (HFDPC) proliferation, MTT assay. The class given is cell-based. The conditions noted are these: for viability at 10 µM / viability at 50 µM / viability at 100 µM: Homo sapiens, 96 h; for viability at 10 µM / viability at 50 µM / viability at 100 µM / proliferation of HFDPC / Cell viability (%): four days incubation. The method, then: Human follicle dermal papilla cell (HFDPC) (TOYOBO, Tokyo, Japan) proliferation was assayed as described by Nguyen et al.. Cells were cultured in growth medium containing 50 mL papilla cell growth medium (PCGM), 0.5 mL FCS, 0.5 mL BPE, 0.25 mL Cyp, and 0.25 mL ITT (51.5 mL total volume). Cell viability was evaluated using the thiazolyl blue tetrazolium bromide (MTT) assay. Cells were collected and diluted in medium containing D-MEM and 10% FBS at a cell density of 1 × 10^4 cells/mL. Then, cell suspension (200 μL) was transferred into a collagen-coated 96-well plate at a density of 2000 cells/well. After incubation for three days, 200 μL of the isolated compounds in DMEM was added. After four days of incubation, 100 μL of MTT solution in D-MEM (0.4 mg/mL) was added, and the mixture was incubated for 2 h. The untransformed MTT was removed, and 100 μL of 2-propanol was added to each well to dissolve the formazan crystals. The absorbance was read at 570 nm and 650 nm using a microplate reader. The cell viability was calculated from the readings, and represented as a percentage of the control value (cells treated with D-MEM only).

The target of a further data set is human PAK1 (Homo sapiens, UniProt Q13153). As to the kind of experiment: In vitro PAK1 inhibition, ADP-Glo kinase assay. Format: biochemical. Conditions: mean ± SE of six replications, read-out: IC50 (μM), in vitro PAK1 inhibitory activity. The method, then:
PAK1 kinase activity was measured using the ADP-Glo™ kinase assay kit (Promega, Madison, WI, USA) according to manufacturer’s instructions. Briefly, human PAK1 (25 ng/reaction) was incubated with test compounds (5 μL) for 10 min. […] The reaction was terminated by adding 25 μL ADP-Glo™ reagent, followed by an incubation time of 40 min. The kinase detection reagent (50 μL) was added to the reaction mixture, and after 30 min of incubation, the luminescence was recorded by MTP-880Lab microplate reader (Corona, Ibaraki, Japan) with an integration time of 0.5 s per well. The percentage inhibition was calculated relative to the control kinase activity without any inhibitor.
A general note: ADP-Glo first removes unused ATP, then detects ADP through luciferase.

[2] abbreviates: 10 μM, percentage of control value (cells treated with D-MEM only).
[3] abbreviates: 100 μM, percentage of control value.

Chain of human PAK1 (Q13153 whole entry): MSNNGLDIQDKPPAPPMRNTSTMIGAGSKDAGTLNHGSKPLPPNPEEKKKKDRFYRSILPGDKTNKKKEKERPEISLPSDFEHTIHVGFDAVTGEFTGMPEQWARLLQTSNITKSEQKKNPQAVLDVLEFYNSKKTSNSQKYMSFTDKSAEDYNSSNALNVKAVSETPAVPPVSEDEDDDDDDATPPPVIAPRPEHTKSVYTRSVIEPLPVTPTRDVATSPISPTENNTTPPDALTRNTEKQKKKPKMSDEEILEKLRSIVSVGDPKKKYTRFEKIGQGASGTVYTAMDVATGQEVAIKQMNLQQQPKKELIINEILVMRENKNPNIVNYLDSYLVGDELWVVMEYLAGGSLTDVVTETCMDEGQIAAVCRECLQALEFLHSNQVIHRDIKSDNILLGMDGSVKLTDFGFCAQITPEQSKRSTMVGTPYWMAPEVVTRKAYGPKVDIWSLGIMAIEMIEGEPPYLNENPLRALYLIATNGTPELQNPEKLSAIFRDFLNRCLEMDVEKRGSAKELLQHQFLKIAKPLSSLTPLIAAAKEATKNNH

In general, IC50 refers to the concentration that gives 50% inhibition. For the molecule `COc1cc(/C=C/C(=O)CC(=O)/C=C/c2ccc(O)c(OC)c2)ccc1O` [Curcumin, reference compound], the IC50 in the data set on A549 lung cancer cells (72 h) came out at 30.3 ± 2.9 µM; in the data set on A549 lung cancer cells (Homo sapiens, A549, 72 h) it was 30 µM.
By viability is commonly meant a read-out of living cells in per cent, often relative to untreated cells. In the case of `C=C1CC2CC(C)(C)C(C)(C)CN2CC1CCCCC/C=C/C` (centres unmarked) [TMOQ, (E)-2,2,3,3-tetramethyl-8-methylene-7-(oct-6-en-1-yl)octahydro-1H-quinolizine], the viability at 10 µM in data set [1] (setting [2]) is 139%. For the same molecule, the viability at 50 µM in data set [1] (percentage of control value) amounted to 104%. In addition, in data set [1] (setting [3]), the viability at 100 µM was determined as 68.5%. Also, the “effect on hair cell proliferation” value in data set [1] (at around 50 μM or higher) was “did not significantly affect the hair cell proliferation”. For the same molecule, the IC50 in the data set with A549 lung cancer cells (Homo sapiens, 72 h) is 90.8 ± 1.6 µM; on human PAK1 it was 49 µM and ~50 µM and 49.3 µM.
For `CO/C=C/C=C/C=C/C1C=CC(/C=C/C=C/C=C/OC)O1` (centres unmarked) [MTD], the viability at 10 µM in data set [1] (setting [2]) came to 165%. Besides, the viability at 50 µM in data set [1] (percentage of control value) stood at 190%. For the same molecule, the viability at 100 µM in data set [1] (setting [3]) was determined as 113%. The 50% inhibitory concentration (IC50) is 98.9 ± 9.3 µM with A549 lung cancer cells (Homo sapiens, A549, 72 h); 59 µM and 58.6 µM on human PAK1.
With `Nc1cc(N2CCCCC2)nc(N)[n+]1[O-]` [Minoxidil, reference compound], in data set [1] (setting [2]), the “proliferation of HFDPC / Cell viability (%)” value was found to be 119% and the viability at 10 µM is 116%.
`C=C1CCC2C(C)(C)CCCC2(C)C1C/C=C(/C=O)CC=O` (centres unmarked) [Labdadiene, 8(17),12-Labdadiene-15,16-dial]: the “proliferation of HFDPC / Cell viability (%)” value in data set [1] (setting [2]) was “about 132%”; in data set [1] (setting [3]), approximately 226%. In data set [1] (setting [2]), the viability at 10 µM was determined as 133%. Besides, the viability at 50 µM in data set [1] (percentage of control value) was 197%. The viability at 100 µM in data set [1] (setting [3]) was determined as 227%. Moreover, the IC50 with A549 lung cancer cells (72 h) is 67.1 ± 6 µM; in the data set on A549 lung cancer cells (Homo sapiens, A549, 72 h), 67 µM; at human PAK1, 52 µM and 52.1 µM.
For the molecule `O=C(O)C1OC(Oc2c(-c3ccc(O)cc3)oc3cc(O)cc(O)c3c2=O)C(O)C(O)C1O` [KOG, kaempferol-3-O-β-D-glucuronide], in data set [1] (setting [3]), the “proliferation of HFDPC / Cell viability (%)” value is on record as approximately 180% and the viability at 100 µM was 181%. For the same molecule, the viability at 10 µM in data set [1] (setting [2]) worked out at 118%. The viability at 50 µM in data set [1] (percentage of control value) was 158%. Besides, the IC50 in the data set on A549 lung cancer cells (Homo sapiens, A549, 72 h) was found to be 81.4 ± 1.9 µM. In addition, the IC50 on human PAK1 was 39 µM and 39.3 µM.
